# Assay results from PMC9884808, “Pharmacokinetics, tissue distribution, and antitumor activity of a novel compound, NY-2, in non-small cell lung cancer” (Frontiers in Pharmacology, 2023).
# Assays:
# [1] = Stability of plasma samples (LC-MS/MS method validation); assay type: in vitro ADME, rat; conditions: room temperature 12 h, auto-sampler 4°C 3 days, -20°C 14 days, three freeze-thaw cycles
# Text: We used the online ADME prediction tool Swiss AMDE (http://www.swissadme.ch/index.php) (SwissADME, 2017) to analyze the physicochemical descriptors and ADME parameters of NY-2 and ZLDI-8, to predict their pharmacokinetic properties, drug-like nature, and medicinal chemistry. […] Male Sprague-Dawley rats weighing 240 ± 20 g were purchased from Liaoning Changsheng Biotechnology Co., Ltd. (Liaoning, China, animal license #SCXK-2015-0001). Rats were used for the tissue distribution and pharmacokinetics experiments because of their larger body fluid volume. The rats were fasted for 12 h before the experiment but allowed to drink water freely. […] Plasma samples were subjected to a protein precipitation method for the quantitative analysis of ZLDI-8 and NY-2 by LC-MS/MS (API 3200MD, AB Sciex, United States). […] The linear equation and correlation coefficient (r) of the regression curve were calculated from these concentrations and the corresponding […] data. The specificity, lower limit of quantification (LLOQ), linear range, precision, accuracy, matrix effects, extraction recovery, stability of analytes during the whole process of storage, as well as treatment in a biological matrix and solution were determined to verify the reliability of the compound concentrations in vivo. […]
# [2] = Pharmacokinetics in rats after tail vein injection; assay type: in vivo, Sprague-Dawley rats; conditions: for Cmax / half-life / MRT last / AUC(0-inf) / AUC(0-t): male, Sprague-Dawley, plasma; for MRT last: read-out: MRT0-t; for AUC(0-inf) / AUC(0-t): 6 mg/kg
# Text: We used the online ADME prediction tool Swiss AMDE (http://www.swissadme.ch/index.php) (SwissADME, 2017) to analyze the physicochemical descriptors and ADME parameters of NY-2 and ZLDI-8, to predict their pharmacokinetic properties, drug-like nature, and medicinal chemistry. […] Male Sprague-Dawley rats weighing 240 ± 20 g were purchased from Liaoning Changsheng Biotechnology Co., Ltd. (Liaoning, China, animal license #SCXK-2015-0001). Rats were used for the tissue distribution and pharmacokinetics experiments because of their larger body fluid volume. The rats were fasted for 12 h before the experiment but allowed to drink water freely. Animals were anesthetized with 4% chloral hydrate (0.5 mL/100 g), the total blood volume was collected from the abdominal aorta and quickly dispensed into heparinized EP tubes prepared in advance. The rats were euthanized after blood collection was completed. Plasma samples were subjected to a protein precipitation method for the quantitative analysis of ZLDI-8 and NY-2 by LC-MS/MS (API 3200MD, AB Sciex, United States). The samples were injected into the ionization source by the auto-sampler. A series of standard solutions of ZLDI-8 were prepared with final concentrations of 20, 50, 100, 250, 500, 1000, and 1500 ng/mL; and NY-2 was prepared with final concentrations of 100, 200, 500, 800, 1200, 1600, and 2000 ng/mL. The linear equation and correlation coefficient (r) of the regression curve were calculated from these concentrations and the corresponding absorption data. The specificity, lower limit of quantification (LLOQ), linear range, precision, accuracy, matrix effects, extraction recovery, stability of analytes during the whole process of storage, as well as treatment in a biological matrix and solution were determined to verify the reliability of the compound concentrations in vivo.
# The plasma concentration-time concentration data of ZLDI-8 and NY-2 at different times were fitted by DAS2.0 pharmacokinetics software and the drug-time curve was drawn. The drug-time curves of the two compounds were compared and simulated, and a two-compartment model was selected to calculate the pharmacokinetic parameters using the statistical moment algorithm. The peak value (Cmax), half-life (t1/2), area under the curve (AUC0-t and AUC0-∞), plasma clearance rate (CL), mean retention time (MRT), and other parameters of the test data were expressed as mean ± SD. Statistical analyses were performed using GraphPad Prism 5 (GraphPad Software, San Diego, CA, United States), and all experiments were repeated at least three times. […] The experimental results are presented as mean ± SD or mean ± SEM, and significant differences are defined as p ≤ .05.
# Plasma samples obtained after the SD rat tail vein injection of ZLDI-8 and NY-2 were processed and analyzed by HPLC-MS/MS, and the measured peak areas of ZLDI-8 and NY-2 were compared with the internal standard peak areas. The accompanying standard curves were used to calculate the plasma drug concentrations of each rat at different time points from the measured values. The plasma concentration-time data of ZLDI-8 and NY-2 at different times were fitted by DAS2.0 pharmacokinetic software, and the pharmacokinetic outcomes of the two compounds were obtained according to the two-compartment model and the pharmacokinetic parameters are shown in Table 2. The average plasma concentration-time curve after intravenous injection of 6 mg/kg compound ZLDI-8 and NY-2 was obtained by plotting the plasma concentrations against time.
# [3] = intravenous, rat, tail vein injection 6 mg/kg, mean ± SD, n = 6
# [4] = iv, rat, tail vein injection 6 mg/kg, mean ± SD, n = 6
# [5] = rat, iv, intravenous injection 6 mg/kg
# [6] = rat, iv, tail vein injection 6 mg/kg, mean ± SD, n = 6
Structure (SMILES),stability of plasma samples [1],"Cmax [2, 3] [ng/mL]","Cmax [2, 4] [ng/mL]","half-life [2, 4] [min]","MRT last [2, 4] [min]","AUC(0-inf) [2, 5] [ng·h/mL]","AUC(0-t) [2, 5] [ng·h/mL]","AUC(0-inf) [2, 6] [ng·h/mL]","AUC(0-t) [2, 6] [ng·h/mL]","MRT0-t of NY-2 relative to ZLDI-8 (printed: lower) ([2]; rat, 6 mg/kg iv) [times]","plasma clearance (CL) of NY-2 as share of ZLDI-8's ([2]; rat, 6 mg/kg iv) [%]","t1/2 of NY-2 relative to ZLDI-8 (longer) ([2]; rat, 6 mg/kg iv)",CLZ rate of NY-2 as fraction of that of ZLDI-8 ([2]; rats)
Cc1c(C=C2C(=O)NC(=S)NC2=O)c2ccccc2n1CCOc1ccc(F)cc1 [NY-2],stable under a variety of analytical conditions,2750,2750 ± 1110,129 ± 37.2,64.2 ± 9.6,402,370,402 ± 130,370 ± 111,3.5,22.2,approximately 3.6 fold,1/5
"Cc1ccc(OCCn2c(C)c(C=C3C(=O)NC(=S)NC3=O)c3ccccc32)c(C)c1 [ZLDI-8, reference compound]",stable under a variety of analytical conditions,337,337 ± 19.4,35.4 ± 15.6,18.6 ± 1.2,85.2,58.8,85.2 ± 26.3,58.8 ± 4.62,–,–,–,–
